Among the data in patent US9149465B2, “Isoxazolines as inhibitors of fatty acid amide hydrolase” (Infinity Pharmaceuticals, Inc., priority 2009, dated 2015) are Ki values, retold here.

SMILES strings stand for the structures.

By Ki is commonly meant a dissociation constant, usually derived from enzyme kinetics or from competition with a known ligand.

The target in the assay is T1, human FAAH (Homo sapiens, UniProt O00519).
T1 construct: host or cells: COS-7 cells, transient transfection; 13,000 g membrane fraction solubilised in 1% Triton X-100
T1 sequence (O00519 1-579): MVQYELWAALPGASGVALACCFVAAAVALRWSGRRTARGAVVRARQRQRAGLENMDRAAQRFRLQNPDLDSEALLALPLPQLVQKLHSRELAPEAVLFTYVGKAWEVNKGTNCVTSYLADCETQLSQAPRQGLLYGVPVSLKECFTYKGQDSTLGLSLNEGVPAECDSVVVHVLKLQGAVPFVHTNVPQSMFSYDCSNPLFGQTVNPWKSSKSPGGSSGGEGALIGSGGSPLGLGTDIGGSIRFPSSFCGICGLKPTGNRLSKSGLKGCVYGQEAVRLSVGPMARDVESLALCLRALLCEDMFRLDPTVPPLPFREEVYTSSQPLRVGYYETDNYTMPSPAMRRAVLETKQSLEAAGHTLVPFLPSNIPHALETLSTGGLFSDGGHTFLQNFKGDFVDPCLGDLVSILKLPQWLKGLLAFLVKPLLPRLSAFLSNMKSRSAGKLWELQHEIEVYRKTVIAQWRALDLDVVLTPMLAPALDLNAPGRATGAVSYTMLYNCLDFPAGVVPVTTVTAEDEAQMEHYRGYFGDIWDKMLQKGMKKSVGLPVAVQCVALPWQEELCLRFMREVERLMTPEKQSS
In words: Inhibition of human FAAH (AMC arachidonoyl amide fluorescence assay). To be noted: inhibitor preincubated 30 minutes at room temperature; 20 μM AMC arachidonoyl amide; 4 hours; read-out: Activity (Ki, inhibitors of human FAAH). In kind it is biochemical. The method, boiled down:
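Solubilized membrane fraction from COS-7 cells transiently expressing human FAAH (0.05 mg/mL final) preincubated 30 min at room temperature with 3-fold serially diluted inhibitor, then reacted 4 h at room temperature with 20 μM AMC arachidonoyl amide. Stopped with α-ketoheterocycle; fluorescence read. Ki from single-site competitive fit, Km fixed at 12 μM.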
Consider `CNC(=O)c1cncc(OC2=NOC(c3ccc(OC(F)(F)F)cc3)C2)c1` (racemic) [I-54], for which the inhibition constant (Ki) is no more than 100 nM.

`Nc1ccc(OC2=NOC(c3ccc(Oc4ccccc4)cc3)C2)cn1` (stereo not shown) [I-93]: the inhibition constant (Ki) is no more than 100 nM.

Regarding `CC1(c2ccc(OC(F)(F)F)cc2)CC(Oc2ccc(F)c(-c3nnco3)c2)=NO1` (racemic) [I-227], the inhibitory constant (Ki) is no more than 100 nM.

Consider `FC(F)(F)Oc1ccc(C2CC(Oc3ccc(-c4cnn[nH]4)nc3)=NO2)cc1` (racemic) [I-236], for which the Ki is no more than 100 nM.

In the case of `FC(F)(F)Oc1ccc(C2CC(Oc3ccc(-c4nnco4)cc3)=NO2)cc1` (racemic) [I-201], the inhibitory constant (Ki) is no more than 100 nM.

On to `N#Cc1ccc(OC2=NOC(c3ccc(OC(F)(F)F)cc3)C2)cn1` (racemic) [I-178], for which the Ki fell in the range of 100 to 1000 nM.

For `BrC1=NOC(c2cccc(Oc3ccccc3)c2)C1` (single isomer, unassigned) [I-11], the inhibition constant (Ki) is no more than 100 nM.

Turning to `C#CCOc1ccc([C@H]2CC(Oc3ccc(C(=O)OC)nc3)=NO2)cc1` (racemic) [I-144], the Ki was no more than 100 nM.

As for `BrC1=NOC(c2ccc(Oc3ccccc3)cc2)C1` (single isomer, unassigned) [I-10], the Ki is no more than 100 nM.

`NC(=O)c1cncc(OC2=NOC(c3ccc(Oc4ccccc4)cc3)C2)c1` (single isomer, unassigned) [I-47]: the Ki is 100 to 1000 nM.

For the compound `C[C@]1(c2ccc(-c3ccccc3)cc2)CC(Oc2cncnc2)=NO1` (racemic) [I-104], the Ki is no more than 100 nM.

With `NC(=O)c1cccc(-c2cncc(OC3=NOC(c4ccc(OC(F)(F)F)cc4)C3)c2)c1` (racemic) [I-73], the Ki is no more than 100 nM.

In the case of `BrC1=NO[C@@H](c2ccc(-c3ccccc3)cc2)C1` (racemic) [I-9], the Ki is no more than 100 nM.

Consider `O[C@@H](CNC1=NOC(c2ccc(OC(F)(F)F)cc2)C1)c1ccccc1` (mixture of isomers) [I-246], for which the Ki was no less than 1000 nM.

Consider `O=C(O)c1ccc(OC2=NO[C@@H](c3ccc(OC(F)(F)F)c(F)c3)C2)cn1` (racemic) [I-123], for which the inhibition constant (Ki) is no more than 100 nM.

For the compound `CC1(c2ccc(OC(F)(F)F)cc2)CC(Oc2ccc(S(C)(=O)=O)nc2)=NO1` (racemic) [I-167], the inhibitory constant (Ki) was no more than 100 nM.

Consider `CS(=O)(=O)c1ccc(OC2=NOC(c3ccc(C(F)(F)F)cc3)C2)cn1` (racemic) [I-169], for which the inhibition constant (Ki) is no more than 100 nM.

For `CC(C)(C)OC(=O)Nc1ccc(OC2=NOC(c3ccc(Oc4ccccc4)cc3)C2)cn1` (racemic) [I-92], the Ki was no less than 1000 nM.

As to `FC(F)(F)C1(c2ccc(Oc3ccccc3)cc2)CC(Oc2cncnc2)=NO1` (racemic) [I-131], the inhibition constant (Ki) is no more than 100 nM.

Regarding `CCNC(=O)c1ccc(OC2=NOC(C)(c3ccc(OC(F)(F)F)cc3)C2)cn1` (racemic) [I-115], the inhibition constant (Ki) was no more than 100 nM.

Regarding `Cc1ccc(OC2=NOC(c3ccc(Oc4ccccc4)cc3)C2)cn1` (single isomer, unassigned) [I-40], the Ki was no more than 100 nM.

For `c1ccc(Oc2ccc(C3CC(Oc4ccncc4)=NO3)cc2)cc1` (single isomer, unassigned) [I-36], the Ki is no less than 1000 nM.

As to `COC1=NOC(c2ccc(Oc3ccccc3)cc2)C1` (single isomer, unassigned) [I-45], the Ki was no less than 1000 nM.

`CC1(c2ccc(OC(F)(F)F)cc2)CC(n2cnc(C(=O)O)n2)=NO1` (racemic) [I-171]: the Ki is no less than 1000 nM.

In the case of `FC(F)(F)Oc1ccc(C2CC(Oc3ccc(-c4cnoc4)nc3)=NO2)cc1` (racemic) [I-194], the Ki was no more than 100 nM.

Take `CC1(c2ccc(OC(F)(F)F)cc2)CC(Oc2ccc(-n3cccn3)nc2)=NO1` (racemic) [I-198]: the inhibition constant (Ki) is no more than 100 nM.

Consider `CC1(c2ccc(OC(F)(F)F)cc2)CC(Oc2cncnc2)=NO1` (racemic) [I-129], for which the Ki is no more than 100 nM.

As to `O=S(=O)(c1ccc([C@H]2CC(Br)=NO2)cc1)N1CCCC1` (racemic) [I-211], the inhibition constant (Ki) is no more than 100 nM.

Regarding `FC(F)(F)Oc1ccc(C2CC(Oc3ccc(-c4nccs4)nc3)=NO2)cc1` (racemic) [I-162], the Ki is no more than 100 nM.

Take `Cc1nnc(-c2ccc(OC3=NOC(C)(c4ccc(OC(F)(F)F)cc4)C3)cn2)s1` (racemic) [I-158]: the Ki was no more than 100 nM.

Consider `BrC1=NOC(CCOc2ccccc2)C1` (single isomer, unassigned) [I-50], for which the Ki was 100 to 1000 nM.

On to `BrC1=NOC(c2ccc(-c3nnc(-c4ccccc4)o3)cc2)C1` (single isomer, unassigned) [I-19], for which the Ki was no more than 100 nM.

In the case of `c1ccc(Oc2ccc(C3CC(n4cccn4)=NO3)cc2)cc1` (single isomer, unassigned) [I-35], the Ki was no less than 1000 nM.

Turning to `CC1(c2ccc(OC(F)(F)F)cc2)CC(Oc2cccnc2)=NO1` (racemic) [I-88], the inhibitory constant (Ki) is 100 to 1000 nM.

For the compound `Cc1nnc(-c2ccc(OC3=NOC(c4ccc(Oc5ccccc5)cc4)C3)cn2)o1` (racemic) [I-155], the Ki is no more than 100 nM.

As to `c1ccc(Oc2ccc(C3CC(Oc4cnc5ccoc5c4)=NO3)cc2)cc1` (racemic) [I-69], the inhibition constant (Ki) was no more than 100 nM.

With `CC1(c2ccc(OC(F)(F)F)cc2)CC(Oc2ccc(-c3ccoc3)nc2)=NO1` (racemic) [I-154], the inhibitory constant (Ki) was no more than 100 nM.

As for `C#CCOc1ccc([C@H]2CC(Oc3cncnc3)=NO2)cc1` (racemic) [I-143], the Ki lay in the range of 100 to 1000 nM.

As to `O=C(O)c1cccc(OC2=NOC(c3ccc(Oc4ccccc4)cc3)C2)c1` (racemic) [I-146], the Ki was in the range of 100 to 1000 nM.

On to `O=C(O)c1ccc(OC2=NOC(c3ccc(OC(F)(F)F)cc3)C2)cn1` (racemic) [I-97], for which the Ki is no more than 100 nM.

For the compound `BrC1=NOC(c2ccc(Oc3cccnc3)cc2)C1` (single isomer, unassigned) [I-12], the Ki was no more than 100 nM.

For the compound `FC(F)(F)Oc1ccc(C2CC(Oc3ccc(-c4nnn[nH]4)nc3)=NO2)cc1` (racemic) [I-195], the Ki is no more than 100 nM.

Regarding `CS(=O)(=O)c1ccc(OC2=NOC(c3ccc(OC(F)(F)F)cc3)C2)cn1` (racemic) [I-135], the Ki was no more than 100 nM.

On to `FC(F)(F)Oc1ccc(C2CC(Oc3cncc(-c4nnco4)c3)=NO2)cc1` (racemic) [I-230], for which the Ki was no more than 100 nM.

With `COc1ccc([C@H]2CC(Br)=NO2)cc1` (racemic) [I-6], the inhibitory constant (Ki) was no more than 100 nM.

`CSc1ccc(OC2=NOC(C)(c3ccc(OC(F)(F)F)cc3)C2)cn1` (racemic) [I-261]: the Ki was no more than 100 nM.

`O=C(NCc1ccccc1)c1ccc([C@H]2CC(Br)=NO2)cc1` (racemic) [I-22]: the Ki fell in the range of 100 to 1000 nM.

As to `COc1ccccc1C1CC(Br)=NO1` (single isomer, unassigned) [I-8], the inhibition constant Ki is no less than 1000 nM.

Take `Fc1cc(OC2=NOC(c3ccc(OC(F)(F)F)cc3)C2)cc(-c2nnco2)c1` (racemic) [I-225]: the Ki was no more than 100 nM.

For the compound `CC1C(Br)=NOC1c1ccc(Oc2ccccc2)cc1` (stereo not shown) [I-78], the Ki was no more than 100 nM.

Regarding `COC(=O)c1cncc(OC2=NOC(c3ccc(Oc4ccccc4)cc3)C2)c1` (single isomer, unassigned) [I-39], the Ki was no more than 100 nM.

For the compound `[O-][S+](C1=NOC(c2ccc(OC(F)(F)F)cc2)C1)c1ccccc1` (racemic) [I-249], the Ki was no less than 1000 nM.

Take `COC(=O)c1ccc(OC2=NOC(c3ccc(Oc4ccccc4)cc3)C2)cn1` (racemic) [I-67]: the Ki was no more than 100 nM.

Regarding `FC(F)(F)Oc1ccc(C2CC(Sc3ccccc3)=NO2)cc1` (racemic) [I-248], the Ki was no less than 1000 nM.

`CC1(c2ccc(OC(F)(F)F)cc2)CC(Oc2cc3ccccn3n2)=NO1` (racemic) [I-172]: the Ki is no less than 1000 nM.

Regarding `N[S@SP3](=O)(=O)c1cccc(OC2=NOC(c3ccc(Oc4ccccc4)cc3)C2)c1` (racemic) [I-63], the inhibitory constant (Ki) is no less than 1000 nM.

For the compound `CSc1ccc(OC2=NOC(c3ccc(OC(F)(F)F)cc3)C2)cn1` (racemic) [I-134], the Ki is no more than 100 nM.

On to `N#Cc1cccc(OC2=NOC(c3ccc(Oc4ccccc4)cc3)C2)c1` (racemic) [I-58], for which the Ki lay in the range of 100 to 1000 nM.

As to `CCCCc1ccc([C@H]2CC(Oc3cncnc3)=NO2)cc1` (racemic) [I-180], the Ki is no more than 100 nM.

As to `CC(C)Oc1ccc([C@H]2CC(Oc3ccc(C(=O)O)nc3)=NO2)cc1` (racemic) [I-140], the Ki was no more than 100 nM.

Turning to `BrC1=NOC(COCCc2ccccc2)C1` (single isomer, unassigned) [I-52], the inhibition constant (Ki) fell in the range of 100 to 1000 nM.

For the compound `CS(=O)(=O)c1ccc(OC2=NOC(c3ccc(Oc4ccccc4)cc3)C2)cn1` (racemic) [I-197], the inhibitory constant (Ki) is no more than 100 nM.

With `C#CCOc1ccc([C@H]2CC(Oc3ccc(C(=O)O)nc3)=NO2)cc1` (racemic) [I-145], the Ki was no more than 100 nM.

On to `COC(=O)c1ccc(OC2=NOC(c3ccc(Oc4ccccc4)cc3)C2)cc1` (racemic) [I-62], for which the inhibitory constant (Ki) was no more than 100 nM.

`CC1(c2ccc(Oc3ccccc3)cc2)CC(Oc2cccnc2)=NO1` (racemic) [I-89]: the Ki is no more than 100 nM.

On to `FC(F)(F)Oc1ccc(C2CC(Oc3cncc(-c4ccccc4)c3)=NO2)cc1` (racemic) [I-72], for which the Ki was in the range of 100 to 1000 nM.

On to `FC(F)(F)c1ccc(C2CC(Oc3ccc(Br)nc3)=NO2)cc1` (racemic) [I-216], for which the inhibition constant Ki was in the range of 100 to 1000 nM.
